Experimental findings from paper PMC467089, “Click estradiol dimers with novel aromatic bridging units: synthesis and anticancer evaluation” (Journal of Enzyme Inhibition and Medicinal Chemistry, 2024) are described below.

Data set [1] deals with K562 (chronic myelogenous leukaemia). The data set can be described thus: MTS cytotoxicity assay, K562. The class given is cell-based. To be noted: Homo sapiens, K562; MTS assay, 72-h incubation, mean ± SD of 3 independent experiments; read-out: IC50 cytotoxic activity K562. In outline: (§1)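 Viability is measured by MTS after cells, seeded overnight, receive fourfold-diluted compounds for 72 h at 37 °C.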

The test system of data set [2] is CEM-DNR (daunorubicin resistant variant of CCRF-CEM). The data set can be described thus: MTS cytotoxicity assay, CEM-DNR. To be noted: Homo sapiens, CEM-DNR; MTS assay, 72-h incubation, mean ± SD of 3 independent experiments; read-out: IC50 cytotoxic activity CEM-DNR. The class given is cell-based, human. In outline: (§2)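 Cells kept in recommended medium with 10% foetal calf serum and penicillin/streptomycin at 37 °C, 5% CO2, seeded overnight, then exposed to fourfold serial DMSO dilutions of compound for 72 h. Viability was read with MTS reagent; technical duplicates, three biological replicates.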

In data set [3] the test system is CCRF-CEM (childhood T-cell acute lymphoblastic leukaemia). The data set can be described thus: MTS cytotoxicity assay, CCRF-CEM. The class given is cell-based. To be noted: Homo sapiens, MTS assay, 72-h incubation, mean ± SD of 3 independent experiments, read-out: IC50 cytotoxic activity CCRF-CEM. In a few lines: as §1
A general note: Formazan colour is commonly taken as a measure of viable cells.

Data set [4] concerns CCRF-CEM lymphoblasts. Nature of the data set: BrU incorporation analysis (RNA synthesis). To be noted: for RNA synthesis, BrU incorporation (in words): 1× and 5×IC50, 24 h, gated remaining live cells. In kind it is cell-based, human. In outline: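 CCRF-CEM cells were treated with compounds for 24 h, then pulsed with 1 mM BrU for 30 min and fixed in 1% paraformaldehyde/0.05% NP-40. BrU was detected with a cross-reacting anti-BrdU antibody and FITC secondary, with propidium iodide/RNase counterstain; value is percentage of BrU-positive cells by flow cytometry.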

A short description of data set [5]: MTS cytotoxicity assay, BJ. To be noted: human, BJ cells (non-tumour skin fibroblasts); MTS assay, 72-h incubation, mean ± SD of 3 independent experiments; read-out: IC50 cytotoxic activity BJ. The class given is cell-based. In a few lines: as §2
In data set [6] the test system is CCRF-CEM lymphoblasts. The data set can be described thus: Cell cycle analysis by flow cytometry (propidium iodide). In kind it is cell-based, human. In a few lines:
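CCRF-CEM cells treated 24 h, then fixed in cold 70% ethanol, permeabilised with 0.25% Triton X-100 and stained with anti-phospho-histone H3 (Ser10). After 50 μg/mL RNase and propidium iodide, analysed by flow cytometry at 488 nm; sub-G1 events counted as non-viable with fragmented DNA.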
(A flow cytometer gives signals particle by particle.)

Data set [7] relates to HCT116 (colorectal adenocarcinoma). The data set can be described thus: MTS cytotoxicity assay, HCT116. The class given is cell-based. To be noted: Homo sapiens, HCT-116; MTS assay, 72-h incubation, mean ± SD of 3 independent experiments; read-out: IC50 cytotoxic activity HCT116. In outline: as §1
Data set [8] has as its system HCT116p53−/− (p53 gene null variant of HCT116). The data set can be described thus: MTS cytotoxicity assay, HCT116p53−/−. The class given is cell-based. As to conditions: Homo sapiens, HCT-116; MTS assay, 72-h incubation, mean ± SD of 3 independent experiments; read-out: IC50 cytotoxic activity HCT116p53-. In outline: as §1
Data set [9] can be described thus: MTS cytotoxicity assay, MRC-5. The class given is cell-based. As to conditions: human, MRC-5 cells (non-tumour fibroblasts); MTS assay, 72-h incubation, mean ± SD of 3 independent experiments; read-out: IC50 cytotoxic activity MRC-5. In a few lines:
as §1

A short description of data set [10]: MTS cytotoxicity assay, HUVEC. To be noted: human, HUVEC cells (umbilical vein endothelial cells); MTS assay, 72-h incubation, mean ± SD of 3 independent experiments; read-out: IC50 cytotoxic activity HUVEC. The class given is cell-based. In a few lines: as §1
Data set [11] deals with A549 (lung adenocarcinoma). The data set can be described thus: MTS cytotoxicity assay, A549. The class given is cell-based, human. To be noted: MTS assay, 72-h incubation, mean ± SD of 3 independent experiments; for IC50: Homo sapiens, A549, read-out: IC50 cytotoxic activity A549. In outline:
as §2

The subject of data set [12] is K562-TAX (paclitaxel-resistant variant of K562). The data set can be described thus: MTS cytotoxicity assay, K562-TAX. To be noted: Homo sapiens, K562-Tax; MTS assay, 72-h incubation, mean ± SD of 3 independent experiments; read-out: IC50 cytotoxic activity K562-TAX. In kind it is cell-based, human. In outline:
as §2

The IC50 is the concentration that gives 50% inhibition. With `COc1cc(Cn2cc([C@]3(O)CC[C@H]4[C@@H]5CCc6cc(O)ccc6[C@H]5CC[C@@]43C)nn2)cc(Cn2cc([C@]3(O)CC[C@H]4[C@@H]5CCc6cc(O)ccc6[C@H]5CC[C@@]43C)nn2)c1` [ED3, (17β,17′β)-17,17′-[(5-Methoxybenzene-1,3-diyl)bis(methanediyl-1H-1,2,3-triazole-1,4-diyl)]bisestra-1,3,5(10)-triene-3,17-diol], the concentration for half-maximal inhibition (IC50) was 330 ± 74 nM in data set [1]; above 50000 nM in data set [2]; 380 ± 19 nM in data set [3]; 470 ± 22 nM in data set [7]; 450 ± 39 nM in data set [8]; 600 ± 47 nM in [11]. Further, the IC50 in data set [12] was above 50000 nM. For the same molecule, in data set [4], the “RNA synthesis, BrU incorporation (in words)” value is “high rate of RNA synthesis”. Also, the “BrU, % of positive cells” value is recorded as 68.66% in [4] (1×IC50, 24 h) and 60.00% in data set [4] (5×IC50, 24 h). Also, the concentration for half-maximal inhibition (IC50) at 72 h in data set [5] was above 50000 nM; in [9] it was above 50000 nM; in data set [10], below 12.2 nM. For the same molecule, the “<G1 (sub-G1, fragmented DNA), % of positive cells” value (“<G1 (sub-G1, fragmented DNA), %” for short) turned out to be 33.51% in data set [6] (1×IC50, 24 h) and 53.18% in data set [6] (5×IC50, 24 h). In addition, the “>G2/M (polyploidy), % of positive cells” value in [6] (1×IC50, 24 h) is 10.23%; in data set [6] (5×IC50, 24 h), 9.8%. The “G0/G1, % of positive cells” value in data set [6] (1×IC50, 24 h) is listed as 6.68%; in data set [6] (5×IC50, 24 h), 6.89%. The “G2/M, % of positive cells” value in data set [6] (1×IC50, 24 h) is 70.65%; in data set [6] (5×IC50, 24 h) it was 71.67%. Besides, the “S, % of positive cells” value in data set [6] (1×IC50, 24 h) was 22.67%; in [6] (5×IC50, 24 h), 21.44%.

`C[C@]12CC[C@@H]3c4ccc(O)cc4CC[C@H]3[C@@H]1CC[C@@]2(O)c1cn(Cc2cc(Cn3cc([C@]4(O)CC[C@H]5[C@@H]6CCc7cc(O)ccc7[C@H]6CC[C@@]54C)nn3)cc(OCCO)c2)nn1` [ED5, (17β,17′β)-17,17′-{[5-(2-Hydroxyethoxy)benzene-1,3-diyl]bis(methanediyl-1H-1,2,3-triazole-1,4-diyl)}bisestra-1,3,5(10)-triene-3,17-diol]: the concentration for half-maximal inhibition (IC50) in data set [1] is 420 ± 44 nM; in [2], above 50000 nM; in data set [3], 710 ± 40 nM; in data set [7] it was 2020 ± 190 nM; in data set [8], 1980 ± 170 nM; in data set [11], above 50000 nM. The half-inhibitory concentration (IC50) in data set [12] is above 50000 nM. In [4], the “RNA synthesis, BrU incorporation (in words)” value is reported as “high rate of RNA synthesis”. Also, the “BrU, % of positive cells” value is listed as 65.14% in data set [4] (1×IC50, 24 h) and 66.40% in data set [4] (5×IC50, 24 h). Moreover, the results for the 50% inhibitory concentration (IC50) at 72 h in [5], in [9] and in data set [10] were above 50000 nM, above 50000 nM and below 12.2 nM, respectively. Moreover, the “<G1 (sub-G1, fragmented DNA), %” value in data set [6] (1×IC50, 24 h) is 29.35%; in data set [6] (5×IC50, 24 h), 36.87%. The “>G2/M (polyploidy), % of positive cells” value in data set [6] (1×IC50, 24 h) is 6.16%; in [6] (5×IC50, 24 h), 10.73%. Moreover, the “G0/G1, % of positive cells” value in [6] (1×IC50, 24 h) is recorded as 35.53%; in data set [6] (5×IC50, 24 h), 13.42%. The “G2/M, % of positive cells” value in data set [6] (1×IC50, 24 h) came to 26.90%; in data set [6] (5×IC50, 24 h) it was 61.48%. Also, the “S, % of positive cells” value in data set [6] (1×IC50, 24 h) came to 37.57%; in data set [6] (5×IC50, 24 h), 25.09%. In addition, the “IC50 cytotoxic activity A549” value in [11] is recorded as “did not exhibit activity”.

As to `C[C@]12CC[C@@H]3c4ccc(O)cc4CC[C@H]3[C@@H]1CC[C@@]2(O)c1cn(Cc2cccc(Cn3cc([C@]4(O)CC[C@H]5[C@@H]6CCc7cc(O)ccc7[C@H]6CC[C@@]54C)nn3)n2)nn1` [ED, reference compound], the concentration for half-maximal inhibition (IC50) is 580 ± 230 nM in data set [1]; above 50000 nM in [2]; 490 ± 220 nM in data set [3]; 950 ± 110 nM in data set [7]; 900 ± 320 nM in data set [8]; above 50000 nM in data set [11]. For the same molecule, the IC50 in data set [12] is above 50000 nM. Also, the “BrU, % of positive cells” value in data set [4] (1×IC50, 24 h) came out at 34.33%; in [4] (5×IC50, 24 h) it was 15.43%. Also, the results for the IC50 at 72 h in [5], in data set [9] and in data set [10] were above 50000 nM, 1160 ± 250 nM and 24.4 ± 17 nM, respectively. For the same molecule, the “<G1 (sub-G1, fragmented DNA), %” value amounted to 11.51% in data set [6] (1×IC50, 24 h) and 22.78% in [6] (5×IC50, 24 h). Further, the “>G2/M (polyploidy), % of positive cells” value in [6] (1×IC50, 24 h) was 11.2%; in data set [6] (5×IC50, 24 h), 23.1%. For the same molecule, the “G0/G1, % of positive cells” value in data set [6] (1×IC50, 24 h) worked out at 33.48%; in [6] (5×IC50, 24 h), 2.50%. The “G2/M, % of positive cells” value in [6] (1×IC50, 24 h) is 25.59%; in [6] (5×IC50, 24 h), 59.11%. The “S, % of positive cells” value is given as 40.93% in data set [6] (1×IC50, 24 h) and 38.39% in data set [6] (5×IC50, 24 h).
